Legend:
[1] = test system: CYP1A1, CYP1A2, CYP2A6, CYP2B6, CYP2C8, CYP2C9, CYP2C19, or CYP2E1 enzymes; details: cited from earlier work
[2] = test system: CYP3A4 and CYP2D6 enzymes; details: in vitro studies; cited from earlier work
[3] = cited from earlier work
[4] = aripiprazole intramuscular depot formulation; cited from earlier work
[5] = Inter-Individual Variability (CV %)
[6] = final combined popPK model, Fixed

SMILES | substrate of CYP1A1, CYP1A2, CYP2A6, CYP2B6, CYP2C8, CYP2C9, CYP2C19, or CYP2E1 enzymes [1] | enzyme for N-dealkylation [2] | enzymes for dehydrogenation and hydroxylation [2] | absolute oral bioavailability ([3]; tablet formulation) | lower apparent clearance in CYP2D6 poor metabolizers (CYP2D6 PM subjects) | IIV on Vc [5] | IIV on deltoid IM Ka [5] | IIV on gluteal IM Ka [5] | IIV on oral Ka (Inter-Individual Variability (CV %), Fixed) | CL Apparent clearance for subjects who are not poor CYP2D6 metabolizers [6] [Fixed L/hr] | CLpm Apparent clearance for subjects who are poor CYP2D6 metabolizers [6] [Fixed Lhr] | IM Ka_BMI Effect of BMI on IH Ka: power for (BMI/28) [6] [Fixed] | IM Ka_male Proportional shift of IM Ka for males [6] [Fixed] | IMKa Gluteal IM 1st order absorption safe constant [6] [h⁻¹] | Q1 Inter-compartmental clearance 1 [6] [Fixed L/hr] | Q2 Inter-compartmental clearance 2 [6] [Fixed L/hr] | share of aripiprazole AUC in plasma ([3]; at steady-state) | share of the parent drug exposure in plasma [4]
O=C1CCc2ccc(OCCCCN3CCN(c4cccc(Cl)c4Cl)CC3)cc2N1 [aripiprazole, 7-[4-[4-(2,3-dichlorophenyl)-1-piperazinyl]butoxy]-3,4-dihydrocarbostyril] | not a substrate | catalyzed by CYP3A4 | CYP3A4 and CYP2D6 enzymes are responsible | about 87% | approximately 50% | 2.18 (148%) | 0.237 (48.9%) | 0.359 (60.0%) | 0.434 (65.9%) | 3.71 | 1.88 | −0.975 | 0.346 | 0.000904 | 0.591 | 28.8 | – | –
O=c1ccc2ccc(OCCCCN3CCN(c4cccc(Cl)c4Cl)CC3)cc2[nH]1 [dehydro-aripiprazole] | – | – | – | – | – | – | – | – | – | – | – | – | – | – | – | – | about 40% | about 29%
